# Where two headings read alike, the source gives them in different places.
# Columns and labels:
# MRSA 15903 = experiment: microbe, parasite or virus in culture; format: cell-based, Staphylococcus aureus; details: Staphylococcus aureus, MRSA, 24 h, read-out: MIC
# Summary of the method: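 Two-agent combinations tested against MRSA 15903; FIC index = A/MICA + B/MICB, using MICs in combination versus alone. Below 0.5 read as clear re-sensitizing, 0.5–4 marginal or null, above 4 antagonism.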
# S. aureus 43300 = experiment: Antibiotic MIC by microdilution with or without sub-MIC polymer; format: cell-based, Staphylococcus aureus
# Experimental: (§1) MICs were determined by microdilution susceptibility testing in 96-well plates (by Nunc) using inocula of 10^5 bacteria per ml. Cell populations were evaluated by optical density measurements at 620 nm and were calibrated against a set of standards. Hundred (100) μl of a bacterial suspension were added to 100 μl of culture medium (control) or to 100 μl of culture medium containing various polymer concentrations in 2-fold serial dilutions. Inhibition of proliferation was determined by optical density measurements at 620 nm after an incubation period of 24 hours at 37° C.
# Table 8 below presents the MIC values of antibiotics in presence or absence of C12(5-ene)KKNC12KNH2 (SEQ ID NO: 2) at sub-MIC levels of the polymer, as measured for the S. aureus strains 43300 (ATCC), 15819 (clinical isolate), 15877 (clinical isolate) and 15852 (clinical isolate). MICs were determined by microdilution susceptibility testing in 96-well plates (Nunc) using inocula of 10^5 bacteria per ml. One hundred (100) μl of a bacterial suspension were added to 100 μl of culture medium (control) or to 100 μl of culture medium containing various antibiotic and C12(5-ene)KKNC12KNH2 (SEQ ID NO: 2) concentrations in 2-fold serial dilutions. Inhibition of proliferation was determined by optical density measurements at 620 nm after an incubation period of 24 hours at 37° C.
# (§2) 100 μl of a bacterial suspension were added to 100 μl of culture medium (control) or to 100 μl of culture medium containing various antibiotic and C14(9-ene)KKNC12KNH2 (SEQ ID NO: 5) concentrations in 2-fold serial dilutions. Inhibition of proliferation was determined by optical density measurements at 620 nm after an incubation period of 24 hours at 37° C.
# E. coli 14182 = experiment: as above; format: cell-based, Escherichia coli
# E. coli 16329 = format: cell-based, Escherichia coli
# Experimental: as §1, §2
# E. coli 14384 = experiment: Antibiotic MIC by microdilution with or without sub-MIC polymer; format: cell-based, Escherichia coli; details: E. coli 14384; for Antibiotic MIC: no polymer (None)
# Experimental: as §1, §2
# E. coli 16327 = experiment: microbe, parasite or virus in culture; details: for Antibiotic MIC: E. coli 16327
# Experimental: as §1, §2
# [1] = +½ MIC (3.12 μM) C14(9-ene)KKNC12KNH2
smiles,measurement,setting,value
"O=C(O)c1cn(C2CC2)c2cc(N3CCNCC3)c(F)cc2c1=O [Ciprofloxacin, ciprofloxacin]",MIC,"MRSA 15903; MRSA 15903, antibiotic alone",64 µg/mL
same,MIC,"MRSA 15903; S. aureus CI-15903, alone",64 µg/mL
same,Antibiotic MIC,S. aureus 43300; +¼ MIC (1.6 μM) C14(9-ene)KKNC12KNH2,0.25 to 0.5 µg/mL
same,Antibiotic MIC,S. aureus 43300; +½ MIC (3.12 μM) C12(5-ene)KKNC12KNH2,0.03 µg/mL
same,Antibiotic MIC,S. aureus 43300; [1],0.25 µg/mL
same,Antibiotic MIC,S. aureus 43300; +⅓ MIC (2.1 μM) C14(9-ene)KKNC12KNH2,0.25 to 0.5 µg/mL
same,Antibiotic MIC,"S. aureus 43300; no polymer (None), Table 8",0.5 µg/mL
same,Antibiotic MIC,"S. aureus 43300; no polymer (None), Table 9",0.5 µg/mL
same,Antibiotic MIC,"S. aureus 43300; no polymer (None), Table 10",0.25 µg/mL
same,Antibiotic MIC,"S. aureus 43300; no polymer (None), Table 11",0.5 µg/mL
same,Antibiotic MIC,"S. aureus 43300; no polymer (None), Table 12",0.5 µg/mL
same,"Antibiotic MIC, None",E. coli 14182; antibiotic alone (Table 15),<0.03 µg/mL
same,Antibiotic MIC,"E. coli 14182; no polymer (None), Table 14",<0.03 µg/mL
same,Antibiotic MIC,"E. coli 16329; E. coli 16329, +¼ MIC (1.6 μM) C16(9-ene)KKNC12KNH2",64 µg/mL
same,Antibiotic MIC,"E. coli 16329; E. coli 16329, +½ MIC (3.12 μM) C16(9-ene)KKNC12KNH2",64 µg/mL
same,Antibiotic MIC,"E. coli 16329; E. coli 16329, +⅓ MIC (2.1 μM) C16(9-ene)KKNC12KNH2",64 µg/mL
same,Antibiotic MIC,"E. coli 16329; E. coli 16329, no polymer (None), Table 10",64 µg/mL
same,Antibiotic MIC,"E. coli 16329; E. coli U-16329, +¼ MIC C12K(NC8K)5NH2",64 µg/mL
same,Antibiotic MIC,"E. coli 16329; E. coli U-16329, +½ MIC C12K(NC8K)5NH2",32 µg/mL
same,Antibiotic MIC,"E. coli 16329; E. coli U-16329, +⅓ MIC C12K(NC8K)5NH2",64 µg/mL
same,"Antibiotic MIC, None","E. coli 16329; E. coli U-16329, antibiotic alone (Table 15)",64 µg/mL
same,Antibiotic MIC,"E. coli 16329; E. coli U-16329, no polymer (None), Table 14",64 µg/mL
same,"Antibiotic MIC in presence of C12K(NC8K)7NH2 (SEQ ID NO: 4), +¼ MIC","E. coli 16329; E. coli U-16329, polymer at ¼ of its MIC",64 to 128 µg/mL
same,"Antibiotic MIC in presence of C12K(NC8K)7NH2 (SEQ ID NO: 4), +½ MIC","E. coli 16329; E. coli U-16329, polymer at ½ of its MIC",64 µg/mL
same,"Antibiotic MIC in presence of C12K(NC8K)7NH2 (SEQ ID NO: 4), +⅓ MIC","E. coli 16329; E. coli U-16329, polymer at ⅓ of its MIC",64 µg/mL
same,"Antibiotic MIC, None",E. coli 14384; antibiotic alone (Table 15),<0.03 µg/mL
same,Antibiotic MIC,E. coli 14384; Table 9,<0.03 µg/mL
same,Antibiotic MIC,E. coli 14384; Table 14,<0.03 µg/mL
same,Antibiotic MIC,E. coli 16327; +¼ MIC (1.6 μM) C12K(KNC12K)2NH2,>512 µg/mL
same,Antibiotic MIC,E. coli 16327; +½ MIC (3.12 μM) C12K(KNC12K)2NH2,128 µg/mL
same,Antibiotic MIC,E. coli 16327; [1],32 to 64 µg/mL
same,Antibiotic MIC,E. coli 16327; +⅓ MIC (2.1 μM) C12K(KNC12K)2NH2,>512 µg/mL
same,Antibiotic MIC,"E. coli 16327; no polymer (None), Table 9",>512 µg/mL
same,Antibiotic MIC,"E. coli 16327; no polymer (None), Table 10",>512 µg/mL
same,Antibiotic MIC,"E. coli 16327; no polymer (None), Table 12",>512 µg/mL
same,"MIC, ¼ + MIC OAK","E. coli 16327; E. coli U16327, with C12K(KNC10K)3NH2 (SEQ ID NO: 10) at ¼ of its MIC",128 to 256 µg/mL
same,"MIC, ½ + MIC OAK","E. coli 16327; E. coli U16327, with C12K(KNC10K)3NH2 (SEQ ID NO: 10) at ½ of its MIC",128 µg/mL
same,"MIC, ⅓ + MIC OAK","E. coli 16327; E. coli U16327, with C12K(KNC10K)3NH2 (SEQ ID NO: 10) at ⅓ of its MIC",128 µg/mL
same,"Antibiotic MIC, None","E. coli 16327; E. coli U-16327, antibiotic alone (Table 15)",128 to 256 µg/mL
same,"Antibiotic MIC in presence of C12K(NC8K)7NH2 (SEQ ID NO: 4), +¼ MIC","E. coli 16327; E. coli U-16327, polymer at ¼ of its MIC",64 to 128 µg/mL
same,"Antibiotic MIC in presence of C12K(NC8K)7NH2 (SEQ ID NO: 4), +½ MIC","E. coli 16327; E. coli U-16327, polymer at ½ of its MIC",16 µg/mL
same,"Antibiotic MIC in presence of C12K(NC8K)7NH2 (SEQ ID NO: 4), +⅓ MIC","E. coli 16327; E. coli U-16327, polymer at ⅓ of its MIC",32 to 64 µg/mL
same,MIC,"E. coli 16327; Escherichia coli, 16327, read-out: MIC, Alone",256 µg/mL
